Source: the NIST ThermoML archive (doi:10.1007/s10765-011-1087-7)
± gives the expanded uncertainty stated by the source.

Columns and labels:
[1] = xn = mol fraction of the nth substance listed; conditions: 101 kPa, Liquid; for speed of sound: Pulse-echo method
[2] = refractive index (Na D-line) (dimensionless); xn = mol fraction of the nth substance listed; conditions: 101 kPa, Liquid

CCCCCCC(C)O (stereo not drawn) [2-octanol] + Clc1ccccc1Cl
Conditions	mass density, [1] [kg/m3]	refractive index, [2]	speed of sound, [1] [m/s]	viscosity, [1] [mPa·s]
298.15 K, x2 = 0.0721	841.72 ± 0.53	1.4308 ± 0.0012	1302 ± 1.3	5.353 ± 0.17
298.15 K, x2 = 0.1124	856.33 ± 0.5	1.4352 ± 0.0012	1299.7 ± 1.3	4.742 ± 0.15
298.15 K, x2 = 0.1868	884.26 ± 0.45	1.443 ± 0.0012	1295.1 ± 1.3	3.839 ± 0.13
298.15 K, x2 = 0.2615	913.56 ± 0.4	1.4507 ± 0.0012	1291 ± 1.3	3.163 ± 0.11
298.15 K, x2 = 0.3223	938.42 ± 0.35	1.4569 ± 0.0012	1287.8 ± 1.3	2.721 ± 0.092
298.15 K, x2 = 0.3758	961.09 ± 0.31	1.4624 ± 0.0012	1285.1 ± 1.3	2.414 ± 0.082
298.15 K, x2 = 0.4495	993.6 ± 0.25	1.4698 ± 0.0012	1281.8 ± 1.3	2.086 ± 0.072
298.15 K, x2 = 0.512	1022.45 ± 0.29	1.4763 ± 0.0012	1279.1 ± 1.3	1.873 ± 0.065
298.15 K, x2 = 0.5923	1061.35 ± 0.37	1.4848 ± 0.0012	1276.1 ± 1.3	1.668 ± 0.059
298.15 K, x2 = 0.6557	1093.66 ± 0.44	1.492 ± 0.0012	1274.5 ± 1.3	1.551 ± 0.055
298.15 K, x2 = 0.7312	1134.18 ± 0.52	1.5014 ± 0.0012	1273.2 ± 1.3	1.406 ± 0.05
298.15 K, x2 = 0.797	1171.44 ± 0.6	1.5103 ± 0.0012	1273 ± 1.3	1.293 ± 0.047
298.15 K, x2 = 0.8672	1213.47 ± 0.7	1.521 ± 0.0012	1274.4 ± 1.3	1.283 ± 0.046
298.15 K, x2 = 0.9481	1265.11 ± 0.81	1.5353 ± 0.0012	1277.6 ± 1.3	1.308 ± 0.047
303.15 K, x2 = 0.0721	837.79 ± 0.54	1.4293 ± 0.0012	1283.9 ± 1.3	4.223 ± 0.14
303.15 K, x2 = 0.1124	852.34 ± 0.51	1.4336 ± 0.0012	1281.6 ± 1.3	3.749 ± 0.12
303.15 K, x2 = 0.1868	880.15 ± 0.46	1.4416 ± 0.0012	1277.6 ± 1.3	3.115 ± 0.11
303.15 K, x2 = 0.2615	909.35 ± 0.4	1.4492 ± 0.0012	1273.5 ± 1.3	2.648 ± 0.09
303.15 K, x2 = 0.3223	934.11 ± 0.36	1.4552 ± 0.0012	1270.5 ± 1.3	2.342 ± 0.08
303.15 K, x2 = 0.3758	956.68 ± 0.32	1.4604 ± 0.0012	1267.9 ± 1.3	2.15 ± 0.074
303.15 K, x2 = 0.4495	989.05 ± 0.26	1.4678 ± 0.0012	1264.9 ± 1.3	1.942 ± 0.067
303.15 K, x2 = 0.512	1017.76 ± 0.28	1.4741 ± 0.0012	1262.2 ± 1.3	1.772 ± 0.062
303.15 K, x2 = 0.5923	1056.48 ± 0.36	1.4828 ± 0.0012	1259.6 ± 1.3	1.613 ± 0.057
303.15 K, x2 = 0.6557	1088.63 ± 0.43	1.4902 ± 0.0012	1258 ± 1.3	1.473 ± 0.052
303.15 K, x2 = 0.7312	1128.95 ± 0.51	1.4997 ± 0.0012	1257 ± 1.3	1.34 ± 0.048
303.15 K, x2 = 0.797	1166.05 ± 0.59	1.509 ± 0.0012	1256.7 ± 1.3	1.253 ± 0.045
303.15 K, x2 = 0.8672	1207.93 ± 0.68	1.52 ± 0.0012	1257.9 ± 1.3	1.201 ± 0.044
303.15 K, x2 = 0.9481	1259.5 ± 0.8	1.5342 ± 0.0012	1261.6 ± 1.3	1.223 ± 0.044
308.15 K, x2 = 0.0721	833.8 ± 0.54	1.4274 ± 0.0012	1266.6 ± 1.3	3.524 ± 0.12
308.15 K, x2 = 0.1124	848.27 ± 0.52	1.4319 ± 0.0012	1264 ± 1.3	3.227 ± 0.11
308.15 K, x2 = 0.1868	875.95 ± 0.47	1.4399 ± 0.0012	1260.1 ± 1.3	2.763 ± 0.093
308.15 K, x2 = 0.2615	905.03 ± 0.41	1.4476 ± 0.0012	1256.2 ± 1.3	2.38 ± 0.081
308.15 K, x2 = 0.3223	929.69 ± 0.37	1.4534 ± 0.0012	1253.3 ± 1.3	2.121 ± 0.073
308.15 K, x2 = 0.3758	952.17 ± 0.33	1.4587 ± 0.0012	1250.8 ± 1.3	1.933 ± 0.067
308.15 K, x2 = 0.4495	984.42 ± 0.27	1.4658 ± 0.0012	1247.6 ± 1.3	1.7 ± 0.06
308.15 K, x2 = 0.512	1013.02 ± 0.27	1.4718 ± 0.0012	1245.4 ± 1.3	1.532 ± 0.054
308.15 K, x2 = 0.5923	1051.57 ± 0.35	1.48 ± 0.0012	1242.9 ± 1.3	1.362 ± 0.049
308.15 K, x2 = 0.6557	1083.59 ± 0.42	1.4873 ± 0.0012	1241.5 ± 1.3	1.243 ± 0.045
308.15 K, x2 = 0.7312	1123.75 ± 0.5	1.4967 ± 0.0012	1240.5 ± 1.3	1.157 ± 0.042
308.15 K, x2 = 0.797	1160.72 ± 0.58	1.5059 ± 0.0012	1240.4 ± 1.3	1.132 ± 0.041
308.15 K, x2 = 0.8672	1202.46 ± 0.67	1.5168 ± 0.0012	1241.5 ± 1.3	1.133 ± 0.041
308.15 K, x2 = 0.9481	1253.92 ± 0.78	1.531 ± 0.0012	1243.9 ± 1.3	1.14 ± 0.042
